Activity calls are given as the source filed them. Cut-off read from the data, not from the text of the source, for most assays here: actives have a measured IC50 and inactives only a lower limit.
Columns and labels:
Assay type in all cases: functional
[1] = target: Melanocortin receptor 4 (Homo sapiens, UniProt P32245); assay: MC4R antagonist potency on cAMP, dose response, cell-based, TR-FRET, biased antagonists (AID 602298);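 note: antagonist potency against agonist-stimulated cAMP production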
[2] = nonselective inhibitors of cellular cAMP signaling, dose response, counter-screen for MC4R biased antagonist project, cell-based, TR-FRET cAMP detection (AID 602305);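 note: U2OS cells stimulated with forskolin near its EC80 as the cAMP inducer; potency is for inhibition of forskolin-stimulated cAMP signaling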
[3] = target: T1, Sentrin-specific protease 8 (Homo sapiens, UniProt Q96LD8); assay: SENP8 protease inhibitors, SAR follow-up, biochemical, luminescence, set 2 (AID 588601)
T1 sequence (Q96LD8 whole entry): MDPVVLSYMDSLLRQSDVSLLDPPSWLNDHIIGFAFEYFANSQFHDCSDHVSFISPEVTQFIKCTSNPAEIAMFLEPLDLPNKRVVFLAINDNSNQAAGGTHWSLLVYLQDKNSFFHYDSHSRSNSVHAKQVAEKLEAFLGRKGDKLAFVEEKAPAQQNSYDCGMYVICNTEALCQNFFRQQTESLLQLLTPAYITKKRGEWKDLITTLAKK

[4] = target: T2, Sentrin-specific protease 7 (Homo sapiens, UniProt Q9BQF6); assay: SENP7 protease inhibitors, SAR follow-up, biochemical, luminescence (AID 504497)
T2 sequence (Q9BQF6 whole entry): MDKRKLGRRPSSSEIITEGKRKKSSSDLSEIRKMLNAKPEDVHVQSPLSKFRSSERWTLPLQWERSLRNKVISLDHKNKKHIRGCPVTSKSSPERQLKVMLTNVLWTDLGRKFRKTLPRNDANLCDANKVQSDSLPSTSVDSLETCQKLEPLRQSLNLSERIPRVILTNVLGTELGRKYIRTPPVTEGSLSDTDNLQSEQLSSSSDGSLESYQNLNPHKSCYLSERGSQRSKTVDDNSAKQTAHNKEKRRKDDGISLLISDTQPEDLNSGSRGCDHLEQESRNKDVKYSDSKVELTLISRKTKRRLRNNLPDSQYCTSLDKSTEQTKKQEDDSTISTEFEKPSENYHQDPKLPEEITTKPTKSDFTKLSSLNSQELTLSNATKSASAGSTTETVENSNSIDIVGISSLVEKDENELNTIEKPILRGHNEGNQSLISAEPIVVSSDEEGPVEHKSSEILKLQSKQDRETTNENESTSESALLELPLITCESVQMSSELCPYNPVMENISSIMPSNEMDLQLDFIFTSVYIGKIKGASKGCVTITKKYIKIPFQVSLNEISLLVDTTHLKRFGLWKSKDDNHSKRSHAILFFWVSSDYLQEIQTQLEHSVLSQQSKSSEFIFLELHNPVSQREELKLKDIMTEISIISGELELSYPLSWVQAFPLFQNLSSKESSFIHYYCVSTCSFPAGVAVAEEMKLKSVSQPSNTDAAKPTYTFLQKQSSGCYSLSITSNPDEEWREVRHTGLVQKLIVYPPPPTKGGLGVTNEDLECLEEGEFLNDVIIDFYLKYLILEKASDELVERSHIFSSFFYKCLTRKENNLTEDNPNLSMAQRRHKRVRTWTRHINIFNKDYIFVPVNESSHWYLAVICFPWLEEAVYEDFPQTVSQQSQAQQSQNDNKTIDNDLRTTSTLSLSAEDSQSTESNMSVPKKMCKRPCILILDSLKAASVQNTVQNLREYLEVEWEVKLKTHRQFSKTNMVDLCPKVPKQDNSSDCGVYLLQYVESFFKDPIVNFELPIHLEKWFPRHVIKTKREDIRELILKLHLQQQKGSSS

[5] = target: T3, Caspase-3 (Homo sapiens, UniProt P42574); assay: caspase-3 inhibitors as off-family protease, SAR follow-up, selectivity assay for SENP protease inhibitor project, biochemical, luminescence, set 2 (AID 588599)
T3 sequence (P42574 whole entry): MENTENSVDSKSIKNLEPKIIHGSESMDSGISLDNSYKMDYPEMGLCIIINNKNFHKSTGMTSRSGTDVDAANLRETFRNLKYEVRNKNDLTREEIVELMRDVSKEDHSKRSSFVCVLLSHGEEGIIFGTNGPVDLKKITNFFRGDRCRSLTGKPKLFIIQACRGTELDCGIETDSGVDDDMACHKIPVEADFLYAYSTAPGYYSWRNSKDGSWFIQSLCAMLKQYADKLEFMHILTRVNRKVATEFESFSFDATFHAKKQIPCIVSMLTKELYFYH

[6] = target: T3, Caspase-3; assay: SAR Analysis of small molecule inhibitors of Sentrin-specific proteases (SENPs) using a Caspase-3 Selectivity assay. [Related pubchem assays (depositor defined):AID2540, AID2599, AID434973, AID489001]
[7] = target: T4, Sentrin-specific protease 6 (Homo sapiens, UniProt Q9GZR1); assay: SAR Analysis of small molecule inhibitors of Sentrin-specific protease 6 (SENP6) using a Luminescent assay. [Related pubchem assays (depositor defined):AID2582, AID2599]
T4 sequence (Q9GZR1 whole entry): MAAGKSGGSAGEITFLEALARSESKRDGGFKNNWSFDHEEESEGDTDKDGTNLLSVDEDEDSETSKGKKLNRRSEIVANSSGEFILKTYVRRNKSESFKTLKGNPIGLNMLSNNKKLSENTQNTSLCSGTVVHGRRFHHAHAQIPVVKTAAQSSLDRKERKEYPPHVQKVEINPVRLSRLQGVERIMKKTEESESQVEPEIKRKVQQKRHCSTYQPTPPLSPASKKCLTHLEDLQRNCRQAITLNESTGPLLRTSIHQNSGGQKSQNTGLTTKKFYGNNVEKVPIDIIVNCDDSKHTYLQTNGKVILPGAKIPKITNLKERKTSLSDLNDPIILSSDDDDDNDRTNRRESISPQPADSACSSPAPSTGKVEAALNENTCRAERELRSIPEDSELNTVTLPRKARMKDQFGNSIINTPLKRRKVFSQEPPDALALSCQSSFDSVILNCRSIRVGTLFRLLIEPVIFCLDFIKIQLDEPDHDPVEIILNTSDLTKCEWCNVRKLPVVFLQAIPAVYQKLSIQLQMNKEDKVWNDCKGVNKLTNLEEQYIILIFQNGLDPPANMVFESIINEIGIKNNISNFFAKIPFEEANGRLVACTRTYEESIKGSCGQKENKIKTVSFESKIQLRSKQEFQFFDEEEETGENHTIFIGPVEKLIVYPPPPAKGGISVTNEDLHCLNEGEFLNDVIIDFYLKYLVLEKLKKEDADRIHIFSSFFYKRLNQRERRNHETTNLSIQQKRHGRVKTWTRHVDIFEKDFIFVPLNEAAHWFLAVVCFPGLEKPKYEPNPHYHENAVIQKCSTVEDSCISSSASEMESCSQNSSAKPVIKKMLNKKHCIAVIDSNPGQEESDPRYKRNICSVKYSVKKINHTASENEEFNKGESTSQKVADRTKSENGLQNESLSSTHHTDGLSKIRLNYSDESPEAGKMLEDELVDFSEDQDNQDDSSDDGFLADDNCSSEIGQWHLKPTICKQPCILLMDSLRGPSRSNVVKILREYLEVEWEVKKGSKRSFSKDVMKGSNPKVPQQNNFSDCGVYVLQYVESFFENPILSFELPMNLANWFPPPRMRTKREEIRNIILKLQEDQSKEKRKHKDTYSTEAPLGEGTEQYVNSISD

[8] = target: T1, Sentrin-specific protease 8; assay: SENP8 protease inhibitors, SAR follow-up, biochemical, luminescence (AID 504501)
[9] = target: T4, Sentrin-specific protease 6; assay: SENP6 protease inhibitors, SAR follow-up, biochemical, luminescence, set 2 (AID 588598)
[10] = target: T2, Sentrin-specific protease 7; assay: SENP7 protease inhibitors, SAR follow-up, biochemical, luminescence, set 2 (AID 588600)
[11] = target: Serine/threonine-protein kinase pim-1 (Homo sapiens, UniProt P11309)
Serine/threonine-protein kinase pim-1, sequence (P11309 whole entry): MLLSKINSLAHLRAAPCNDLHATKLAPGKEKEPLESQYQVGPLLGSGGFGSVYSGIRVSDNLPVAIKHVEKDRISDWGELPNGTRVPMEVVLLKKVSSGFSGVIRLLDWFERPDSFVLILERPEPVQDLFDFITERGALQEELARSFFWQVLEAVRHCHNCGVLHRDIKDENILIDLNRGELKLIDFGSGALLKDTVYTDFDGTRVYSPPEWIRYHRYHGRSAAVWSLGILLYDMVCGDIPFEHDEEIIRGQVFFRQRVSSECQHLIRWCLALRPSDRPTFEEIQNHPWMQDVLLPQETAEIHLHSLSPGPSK

Melanocortin receptor 4, sequence (P32245 whole entry): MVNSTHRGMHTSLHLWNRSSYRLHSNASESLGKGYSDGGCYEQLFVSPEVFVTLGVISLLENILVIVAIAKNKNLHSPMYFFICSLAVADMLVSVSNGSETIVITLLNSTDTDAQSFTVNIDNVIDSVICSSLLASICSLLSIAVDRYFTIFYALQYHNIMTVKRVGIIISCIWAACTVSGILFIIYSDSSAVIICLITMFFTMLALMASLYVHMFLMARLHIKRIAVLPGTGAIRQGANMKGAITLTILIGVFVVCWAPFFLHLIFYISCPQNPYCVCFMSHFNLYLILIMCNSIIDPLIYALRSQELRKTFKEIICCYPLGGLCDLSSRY

Row | Structure (SMILES) | IC50 [3] | IC50 [5] | IC50 [9] | IC50 [10] | other results
1 | Cc1cc(C(=O)COc2cc(F)ccc2[N+](=O)[O-])c(C)n1CC1CCCO1 (stereo not given) |  |  |  |  | IC50 [1]: > 64.6 µM (inactive); IC50 [2]: > 64.6 µM (inactive)
2 | Cc1csc(C(=O)Nc2nc3ccccc3s2)c1 | 21.4 µM (active) | 34 µM (active) | 23.4 µM (active) | 19.2 µM (active) | IC50 [4]: 1.8 µM (active); IC50 [6]: 3.6 µM (active); IC50 [7]: 2.8 µM (active); IC50 [8]: 3.2 µM (active)
3 | Cc1ccccc1-c1noc(/C(C#N)=C\c2ccc3c(c2)OCCO3)n1 | > 99 µM (inactive) | 2.16 µM (active) | 4.82 µM (active) | 5.42 µM (active) | 
4 | Cc1cc(=O)n2[nH]cc(C(=O)NCc3ccccc3)c2n1 |  |  |  |  | Ki [11]: 3.98 µM (active)
